Data taken from patent US10905683B2, “Compositions and uses of amidine derivatives” (BIOCRYST PHARMACEUTICALS, INC., priority 2014, dated 2021).
Where two headings read alike, the source gives them in different places.

Assays:
[1] = Solubility with cyclodextrins and co-agents; assay type: physicochemical; conditions: for solubility: aqueous with cosolvent or surfactant or cyclodextrin, thermodynamic from solid
Method: Additional solubility studies were undertaken using cyclodextrins, including α-cyclodextrin and a polyanionic β-cyclodextrin derivative with a sodium sulfonate salt separated from the lipophilic cavity by a butyl ether or sulfobutylether spacer group) (referred to herein as Captisol) in combination with a variety of co-agents.
Test samples were prepared with the indicated cyclodextrins and the compound of Example 1, both with and without additional agents. The test solutions were sonicated in a Fisher model 55 dismembrator (small probe) at its maximum setting of 5 for 90 seconds. The samples were rotated overnight at room temperature to allow equilibration. Quantitation was performed by comparison of the concentrations of the resulting solution of the compound 1 to a single point calibration curve using a solution of the reference standard.

[2] = Phase 1 safety and tolerability; assay type: in vivo, human; conditions: healthy subjects
Method: (§1) A two-part, Phase 1, double-blind, placebo-controlled study of the compound of Example 1 was conducted in healthy subjects. Part 1 of the study assessed the safety, tolerability and the pharmacokinetic (PK) and pharmacodynamic (PD) properties of the compound of Example 1 following a single ascending dose. Subjects were enrolled in five sequential cohorts and received the compound of Example 1 (50 mg, 125 mg, 250 mg, 500 mg or 1000 mg; n=6/cohort) or placebo (n=2/cohort) under fasting conditions. To enable a food-effect assessment on exposure, subjects enrolled in Cohort 4 (500 mg or placebo) subsequently received a second dose of the compound of Example 1 following a high-fat breakfast.
Part 2 of the study evaluated the safety, tolerability, PK, and PD of multiple ascending doses of the compound of Example 1. Twelve subjects were administered a 7-day course of the compound of Example 1 (n=10 subjects/cohort received the API and n=2 subjects/cohort received matching placebo) according to the following dose regimens: 100 mg of the compound of Example 1 or placebo every 8 hours (q8h) in Cohort 1; 200 mg of the compound of Example 1 or placebo q8h in Cohort 2; 400 mg of the compound of Example 1 or placebo q8h in Cohort 3 and 800 mg of the compound of Example 1 or placebo q8h in Cohort 4.

[3] = Phase 1 Part 1, single ascending oral dose pharmacokinetics and food effect; assay type: in vivo, human; conditions: for Tmax: median
Method: as §1
A summary of the pharmacokinetic parameters for fasting, single oral doses of 50 to 1000 mg of the compound of Example 1 (Part 1) is presented in Table 16.
Compound concentrations then declined biphasically and were quantifiable through 9 hours postdose in Cohort 1 (50 mg) and 24 hours postdose in Cohorts 4 and 5 (500 and 1000 mg).

[4] = Concentration achieved in formulations and excipient mixtures; assay type: physicochemical
Method: In initial formulation work for the amidine compounds described herein, in particular 3-[2-(4-carbamimidoyl-phenylcarbamoyl)-5-methoxy-4-vinyl-phenyl]-6-(cyclopropylmethyl-carbamoyl)-pyridine-2-carboxylic acid, extensive studies were carried out to identify a suitable mixture of excipients to produce the oral formulation described herein.
Specifically, a variety of approaches were taken to develop suitable oral formulations of 3-[2-(4-carbamimidoyl-phenylcarbamyl)-5-methoxy-4-vinyl-phenyl]-6-(cyclopropylmethyl-carbamoyl)-pyridine-2-carboxylic acid. The approaches taken included use of a variety of hydrophilic polymers, including α-cyclodextrin and a polyanionic 3-cyclodextrin derivative with a sodium sulfonate salt separated from the lipophilic cavity by a butyl ether or sulfobutylether spacer group in combination with a variety of co-solvents. In addition, the compound was evaluated in formulations created by a number of different technologies (such as dry blends, nanosuspensions, solid dispersion and emulsions) using a variety of approaches.

[5] = 50 mg single oral dose, fasting, GM
[6] = 125 mg single oral dose, fasting, GM
[7] = 250 mg single oral dose, fasting, GM
[8] = 500 mg single oral dose, FASTED, GM
[9] = human, plasma, po, 50 mg, 50 mg single oral dose, fasting, GM
[10] = human, plasma, po, 125 mg, 125 mg single oral dose, fasting, GM
[11] = human, plasma, po, 250 mg, 250 mg single oral dose, fasting, GM
[12] = human, plasma, po, 500 mg, 500 mg single oral dose, FASTED, GM
[13] = human, plasma, po, 500 mg, 500 mg single oral dose, FED (high-fat breakfast), GM
[14] = human, plasma, po, 1000 mg, 1000 mg single oral dose, fasting, GM

C=Cc1cc(C(=O)Nc2ccc(C(=N)N)cc2)c(-c2ccc(C(=O)NCC3CC3)nc2C(=O)O)cc1OC [Example 1, 3-[2-(4-carbamimidoyl-phenylcarbamoyl)-5-methoxy-4-vinyl-phenyl]-6-(cyclopropylmethyl-carbamoyl)-pyridine-2-carboxylic acid]
solubility ([1]; Captisol 150 mM with DMSO 10%, Captisol 150 mM, DMSO 10%): 3980 µg/mL
solubility ([1]; Captisol 150 mM with ethanol 10%, Captisol 150 mM, Ethanol 10%): 3550 µg/mL
solubility ([1]; Captisol 150 mM with propylene glycol 10%, Captisol 150 mM, Propylene glycol 10%): 3300 µg/mL
solubility ([1]; Captisol 150 mM with sodium dodecyl sulphate 100 mg, Captisol 150 mM, Sodium dodecyl sulphate 100 mg): 240 µg/mL
solubility ([1]; Captisol (sulfobutylether β-cyclodextrin) solution, Captisol 150 mM, no co-solvent): 7610 µg/mL
solubility ([1]; Captisol solution with co-agent, Captisol 150 mM, HPMC E-5 0.25%): 4160 µg/mL
solubility ([1]; Captisol solution with co-agent, Captisol 150 mM, Polyethylene glycol 400 10%): 5460 µg/mL
solubility in cyclodextrins ([1]; with and without co-agents): not soluble in cyclodextrins
solubility ([1]; α-cyclodextrin 150 mM with DMSO 10%, α-cyclodextrin 150 mM, DMSO 10%): 11100 µg/mL
solubility ([1]; α-cyclodextrin 150 mM with ethanol 10%, α-cyclodextrin 150 mM, Ethanol 10%): 270 µg/mL
solubility ([1]; α-cyclodextrin 150 mM with propylene glycol 10%, α-cyclodextrin 150 mM, Propylene glycol 10%): 4980 µg/mL
solubility ([1]; α-cyclodextrin solution with co-agent, α-cyclodextrin 150 mM, HPMC E-5 0.25%): 9950 µg/mL
solubility ([1]; α-cyclodextrin solution with co-agent, α-cyclodextrin 150 mM, Polyethylene glycol 400 10%): 5000 µg/mL
solubility ([1]; α-cyclodextrin solution with co-agent, α-cyclodextrin 150 mM, Sodium dodecyl sulphate 100 mg): 10000 µg/mL
solubility ([1]; α-cyclodextrin solution, α-cyclodextrin 150 mM, no co-solvent): 10000 µg/mL
safety and tolerability ([2]; Part 1 (50-1000 mg single) and Part 2 (100-800 mg q8h, 7 days)): generally safe and well tolerated
dose-limiting adverse events ([2]; Part 1 and Part 2): no dose-limiting adverse events
serious adverse events ([2]; Part 1 and Part 2): no serious adverse events
DN AUC0-inf [3, 5]: 1.94 ng·h/mL/mg
DN Cmax [3, 5]: 0.528 ng/mL/mg
DN AUC0-inf [3, 6]: 1.58 ng·h/mL/mg
DN Cmax [3, 6]: 0.432 ng/mL/mg
DN AUC0-inf [3, 7]: 1.41 ng·h/mL/mg
DN Cmax [3, 7]: 0.344 ng/mL/mg
reduction of AUCinf with food v. fasting ([3]; 500 mg single oral dose): 23%
reduction of AUClast with food v. fasting ([3]; 500 mg single oral dose): 20%
reduction of geometric mean Cmax after a high-fat breakfast v. fasting ([3]; 500 mg single oral dose): 47%
DN AUC0-inf [3, 8]: 1.60 ng·h/mL/mg
DN Cmax [3, 8]: 0.311 ng/mL/mg
DN Cmax ([3]; 1000 mg single oral dose, fasting, GM): 0.193 ng/mL/mg
DN AUC0-inf ([3]; 1000 mg single oral dose, fasting, GM, n = 5): 0.983 ng·h/mL/mg
half-life ([3]; human, plasma, oral, 50 mg, Cohort 1 (50 mg single dose), read-out: terminal half-life (converted)): ~3 h
half-life ([3]; human, plasma, oral, 500 mg, Cohort 4 (500 mg single dose), read-out: terminal half-life (converted)): ~15 h
concentration at 12 h ([3]; human, plasma, oral, single doses, read-out: plasma concentrations at 12 hours postdose): < 10 ng/mL
AUC(0-inf) [3, 9]: 96.8 ng·h/mL
AUC(0-t) [3, 9]: 89.6 ng·h/mL
Cmax [3, 9]: 26.4 ng/mL
half-life ([3]; human, plasma, po, 50 mg, 50 mg single oral dose, fasting, GM, read-out: t1/2 (converted)): 2.98 h
Tmax ([3]; human, plasma, po, 50 mg, 50 mg single oral dose, fasting): 1 h
AUC(0-inf) [3, 10]: 197 ng·h/mL
AUC(0-t) [3, 10]: 188 ng·h/mL
Cmax [3, 10]: 54 ng/mL
half-life ([3]; human, plasma, po, 125 mg, 125 mg single oral dose, fasting, GM, read-out: t1/2 (converted)): 4.66 h
Tmax ([3]; human, plasma, po, 125 mg, 125 mg single oral dose, fasting): 2 h
AUC(0-inf) [3, 11]: 353 ng·h/mL
AUC(0-t) [3, 11]: 336 ng·h/mL
Cmax [3, 11]: 85.9 ng/mL
half-life ([3]; human, plasma, po, 250 mg, 250 mg single oral dose, fasting, GM, read-out: t1/2 (converted)): 6.5 h
Tmax ([3]; human, plasma, po, 250 mg, 250 mg single oral dose, fasting): 2 h
AUC(0-inf) [3, 12]: 802 ng·h/mL
AUC(0-t) [3, 12]: 760 ng·h/mL
Cmax [3, 12]: 155 ng/mL
half-life ([3]; human, plasma, po, 500 mg, 500 mg single oral dose, FASTED, GM, read-out: t1/2 (converted)): 15.4 h
Tmax ([3]; human, plasma, po, 500 mg, 500 mg single oral dose, FASTED): 2 h
AUC(0-t) [3, 13]: 586 ng·h/mL
Cmax [3, 13]: 82.1 ng/mL
AUC(0-inf) ([3]; human, plasma, po, 500 mg, 500 mg single oral dose, FED (high-fat breakfast), GM, n = 5): 642 ng·h/mL
half-life ([3]; human, plasma, po, 500 mg, 500 mg single oral dose, FED (high-fat breakfast), GM, n = 5, sampling to 96 hours, read-out: t1/2 (converted)): 18.9 h
Tmax ([3]; human, plasma, po, 500 mg, 500 mg single oral dose, FED (high-fat breakfast)): 2.5 h
AUC(0-t) [3, 14]: 981 ng·h/mL
Cmax [3, 14]: 193 ng/mL
AUC(0-inf) ([3]; human, plasma, po, 1000 mg, 1000 mg single oral dose, fasting, GM, n = 5): 983 ng·h/mL
half-life ([3]; human, plasma, po, 1000 mg, 1000 mg single oral dose, fasting, GM, n = 5, sampling to 96 hours, read-out: t1/2 (converted)): 12.3 h
Tmax ([3]; human, plasma, po, 1000 mg, 1000 mg single oral dose, fasting): 2 h
concentration dissolved ([4]; 1,2-propanediol, especially as part of a mixture of polar protic solvents): up to 140 mg/ml
concentration in formulation ([4]; initial formulations: cyclodextrins, co-solvents, dry blends, nanosuspensions, solid dispersion, emulsions): less than 10.5 mg/ml
concentration in formulation ([4]; novel excipient mixtures of the invention): at least 100 mg/ml
concentration dissolved ([4]; polyethylene glycol 600, especially as part of a mixture of polar protic solvents): up to 140 mg/ml
